Laboratory results as given in patent US6350767B1, “Compounds with growth hormone releasing properties” (Novo Nordisk A/S, priority 1995, dated 2002).
Structures can show the parent of a compound that is named as a salt.

How the values were obtained:
[1] = system: carboxypeptidase Y and B; test: Metabolic stability in carboxypeptidase mix (ESMS, SIM of the molecular ion); format: in vitro ADME; details: stability after 24 h at 37° C. in carboxypeptidase Y and B, 50 mM ammoniumacetate pH 4.5; enzyme:substrate approx. 1:5 (w/w)
Procedure: (§1) Compounds of formula I may be evaluated for their metabolic stability.
(§2) Compounds were dissolved at a concentration of 1 μg/μl in water. 25 μl of this solution is added to 175 μl of the respective enzyme-solution (resulting in an enzyme:substrate ratio (w/w) of approximately 1:5). The solution is left at 37° C. overnight. 10 μl of the various degradation solutions is analyzed against a corresponding zero-sample using flow injection electrospray mass spectrometry (ESMS) with selected ion monitoring of the molecular ion. If the signal has decreased more than 20% compared to the zero-sample, the remainder of the solution is analyzed by HPLC and mass spectrometry in order to identify the extent and site(s) of degradation precisely.
(§3) Several standard peptides (ACTH 4-10, Angiotensin 1-14 and Glucagon) have been included in the stability tests in order to verify the ability of the various solutions to degrade peptides.
(§4) Enzymes (trypsin, chymotrypsin, elastase aminopeptidase M and carboxypeptidase Y and B) were all purchased from Boehringer Mannheim GmbH (Mannheim, Germany)
Carboxypeptidase mix: carboxypeptidase Y and B in 50 mM ammoniumacetate pH 4.5 (all concentrations 0.025 μg/μl).
(§5) Quantification of the compounds (before and after degradation) was done on the API III instrument using single ion monitoring of the molecular ion in question with flow injection of the analyte. […]

[2] = system: trypsin, chymotrypsin and elastase; test: Metabolic stability in pancreatic enzyme mix (ESMS, SIM of the molecular ion); format: in vitro ADME; details: stability after 24 h at 37° C. in trypsin, 100 mM ammoniumbicarbonate pH 8.0, enzyme:substrate approx. 1:5 (w/w)
Procedure: as §1, §2, §3, §4
Pancreatic enzyme mix: trypsin, chymotrypsin and elastase in 100 mM ammoniumbicarbonate pH 8.0 (all concentrations 0.025 μg/μl).
as §5

| Molecule | melting point [°C] | Carboxy-peptidase mix [1] | Pan. enzyme mix [2] |
| --- | --- | --- | --- |
| Cc1noc([C@@H](Cc2ccccc2)NC(=O)[C@@H](Cc2ccc3ccccc3c2)NC(=O)c2cccc(CN)c2)n1 (as salt: salt) | 240 to 241 | – | – |
| Cc1noc([C@@H](Cc2ccccc2)NC(=O)C(Cc2ccc3ccccc3c2)NC(=O)/C=C/C(C)(C)N)n1 (stereo in doubt) (as salt: salt) | 161 to 167 | – | – |
| Glucagon | – | − (Unstable (more than 20% decrease in SIM signal after 24 h in degradation solution)) | − (Unstable (more than 20% decrease in SIM signal after 24 h in degradation solution)) |
| Cc1noc([C@@H](Cc2ccccc2)NC(=O)[C@@H](Cc2ccc3ccccc3c2)NC(=O)C2CCNCC2)n1 (stereo in doubt) (as salt: salt) | 238 to 241 | – | – |
| Cc1noc([C@@H](Cc2ccccc2)NC(=O)[C@@H](Cc2ccc3ccccc3c2)NC(=O)[C@@H]2CCCNC2)n1 (stereo in doubt) (as salt: salt) | 198 to 200 | – | – |
